Test results reported in patent US12077604B2, “Deuterated compounds, compositions, and methods for treating cancers associated with ETBR activation” (ENB Therapeutics Inc., priority 2018, dated 2024).
“Also recorded” adds a separate entry of the source.

How the values were obtained:
ETBR = assay: Plasma ET-1 ELISA after IV infusion, indirect measure of ETBR engagement; format: in vivo; details: rats, 250 μg/kg IV infusion
Procedure: Briefly, rats (N=4 animals per timepoint) were administered either BQ-788 or the deuterated form, BQ-788-B at a dose of 250 μg/kg via IV infusion. Plasma samples were collected at various time points and ET-1 ELISA performed. BQ788 and BQ788-B are peptide drugs that are rapidly degraded in plasma and thus drug levels are difficult to detect directly. […] As such, plasma levels of ET-1 are commonly used as an indirect measure of BQ-788 biologic activity.

ETA (h) = target: T1, ETA (h) (Homo sapiens, UniProt P25101); assay: ETA (h) cellular antagonist effect; format: cell-based
T1 sequence (P25101 21-427): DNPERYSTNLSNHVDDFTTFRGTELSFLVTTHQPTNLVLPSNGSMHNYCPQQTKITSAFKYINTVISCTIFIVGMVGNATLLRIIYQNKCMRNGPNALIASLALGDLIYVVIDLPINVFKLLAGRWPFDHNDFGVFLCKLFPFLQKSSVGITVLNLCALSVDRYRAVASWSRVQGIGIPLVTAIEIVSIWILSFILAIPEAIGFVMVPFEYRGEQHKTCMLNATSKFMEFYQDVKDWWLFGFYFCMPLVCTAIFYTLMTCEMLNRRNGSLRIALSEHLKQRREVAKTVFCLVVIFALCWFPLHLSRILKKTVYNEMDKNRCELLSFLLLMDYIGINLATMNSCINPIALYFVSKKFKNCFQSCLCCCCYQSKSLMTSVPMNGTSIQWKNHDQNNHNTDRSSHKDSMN
Procedure: FIGS. 5A and 5B show determination of ETA (h) inhibitory effect for A) BQ-788 and B) BQ-788-B, a specifically deuterated ETRB antagonist. Cellular agonist effect was calculated as a % of control response to a known reference agonist for ETA (h), and cellular antagonist effect was calculated as a % inhibition of control reference agonist response for ETA.
Cellular agonist effect was calculated as a % of control response to a known reference agonist for ETA (h), and cellular antagonist effect was calculated as a % inhibition of control reference agonist response for ETA.

ETB (h) = target: T2, ETB (h) (Homo sapiens, UniProt P24530); assay: ETB (h) cellular antagonist effect; format: cell-based
T2 sequence (P24530 27-442): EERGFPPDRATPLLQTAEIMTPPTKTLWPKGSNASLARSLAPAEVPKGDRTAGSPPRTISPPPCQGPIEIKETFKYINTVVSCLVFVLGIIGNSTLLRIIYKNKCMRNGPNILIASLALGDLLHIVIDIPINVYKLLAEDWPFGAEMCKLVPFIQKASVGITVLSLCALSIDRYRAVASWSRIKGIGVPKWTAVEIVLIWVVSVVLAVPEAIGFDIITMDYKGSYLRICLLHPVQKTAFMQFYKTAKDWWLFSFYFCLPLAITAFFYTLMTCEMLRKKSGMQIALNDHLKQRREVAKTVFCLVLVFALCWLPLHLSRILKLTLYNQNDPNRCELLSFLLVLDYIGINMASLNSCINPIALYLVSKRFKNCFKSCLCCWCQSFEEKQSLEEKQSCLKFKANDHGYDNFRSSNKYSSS
Procedure: (§1) Cellular agonist effect was calculated as a % of control response to a known reference agonist for ETB (h), and cellular antagonist effect was calculated as a % inhibition of control reference agonist response for ETB.
as §1, with “Determination of ETBR inhibitory effect for specifically deuterated ETRB antagonists. […] Cellular” for “Cellular”

CXCR4 (h) = target: T3, CXCR4 (h) (Homo sapiens, UniProt P61073); assay: CXCR4 (h) cellular antagonist effect, impedance by dielectric spectroscopy, stimulated with 1 nM SDF-1α; format: cell-based; details: recombinant human CXCR4 in CHO cells, 28° C.
T3 construct: expressed in transfected cells; host or cells: CHO cells
Procedure: FIGS. 4A and 4B show determination of CXCR4 (h) inhibitory effect for, A) BQ-788 and B) BQ-788-B, a specifically deuterated ETRB antagonist (i.e., “Compound 1”). Cellular agonist effect was calculated as a % of control response to a known reference agonist for CXCR4 (h), and cellular antagonist effect was calculated as a % inhibition of control reference agonist response for CXCR4.
Determination of CXCR4 inhibitory effect. The inhibitory effect on CXCR4 (h) was determined for BQ-788 (FIG. 4A), and BQ-788 (FIG. 4B) BQ-788-B (i.e., “Compound 1”). Cellular agonist effect was calculated as a % of control response to a known reference agonist for CXCR4 (h), and cellular antagonist effect was calculated as a % inhibition of control reference agonist response for CXCR4. Recombinant human CXCR4 was expressed in CHO cells, and stimulated with 1 nM SDF-1α and incubated at 28° C. Dielectric spectroscopy was used to measure impedance of the cells.

T3 sequence (P61073 whole entry): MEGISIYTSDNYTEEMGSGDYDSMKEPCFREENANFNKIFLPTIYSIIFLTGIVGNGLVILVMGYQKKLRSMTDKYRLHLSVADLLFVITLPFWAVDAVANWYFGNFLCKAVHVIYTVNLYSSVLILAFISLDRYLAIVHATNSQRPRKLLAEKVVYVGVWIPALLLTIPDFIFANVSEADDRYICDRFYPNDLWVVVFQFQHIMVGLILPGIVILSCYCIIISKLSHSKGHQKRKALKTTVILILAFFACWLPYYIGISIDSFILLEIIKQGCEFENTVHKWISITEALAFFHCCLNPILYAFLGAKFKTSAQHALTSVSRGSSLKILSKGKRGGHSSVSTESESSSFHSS

SMILES | plasma ET-1 response: prolonged peak out to (ETBR; ET-1 ELISA) | biologic activity in vivo by plasma ET-1 (duration and amplitude of response) (ETBR; compared with non-deuterated BQ-788) | IC50, inhibition of control reference agonist response for ETA (h) (ETA (h)) | IC50 (ETB (h); read-out: IC50, inhibition of control reference agonist response for ETB (h)) [nM] | IC50, inhibition of control reference agonist response for CXCR4 (h) (CXCR4 (h)) | Kd (ETB (h)) [nM] | IC50 (CXCR4 (h); read-out: IC50, inhibition of control reference agonist response for CXCR4 (h)) [nM]
[2H]C[C@@H]1CCC[C@H](C[2H])N1C(=O)N[C@@H](CC(C)(C)C)C(=O)N[C@H](Cc1cn(C(=O)OC)c2ccccc12)C(=O)N[C@H](CCCC)C(=O)O [BQ-788-B] | about 3 hours | enhanced duration and amplitude of response relative to the undeuterated form; also recorded: enhanced biological activity relative to BQ-788 | not calculable | 96 | not calculable |  | 
CCCC[C@@H](NC(=O)[C@@H](Cc1cn(C(=O)OC)c2ccccc12)NC(=O)[C@H](CC(C)(C)C)NC(=O)N1[C@H](C)CCC[C@@H]1C)C(=O)O [BQ-788] |  |  | not calculable |  |  | 13 | > 1000
